Measured values taken from patent US10278942B2 (PELOTON THERAPEUTICS, INC., priority 2015, dated 2019).
Where two headings read alike, the source gives them in different places.

Key:
786-O-Hif-Luc cells = test: Luciferase Assay (HIF responsive elements reporter)
Protocol: A pool of infected cells were then selected against 2 μg/mL of puromycin (P8833, Sigma) for 10 days followed by limited dilution to select single clones. […] Each concentration was tested in triplicate. After about 24 hours, luciferase activity was determined using ONE-Glo Luciferase Assay Reagent (E6110, Promega) following the manufacturer's recommended procedure. EC50 were calculated using Dotmatics software.

[1] = target: T1, HIF-2α HIS TAG-PASB Domain (Homo sapiens, UniProt Q99814); test: HIF-2α Scintillation Proximity Assay (SPA); format: binding
T1 construct: 100 nM HIF-2α HIS TAG-PASB Domain
Procedure, shortened: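 IC50 values rest on percent inhibition, where the sample signal is scaled between high and low controls. Wells contain about 100 μL: compound dispensed as 2 μL of DMSO solution, 88 μL protein-probe mix and 10 μL of beads.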

[2] = read-out: Mean Luciferase EC50 (nM), 786-O-Hif-Luc cells
[3] = read-out: Scintillation Proximity Assay IC50
[4] = Scintillation Proximity Assay IC50 (nM)

T1 sequence (Q99814 240-350 limits assumed): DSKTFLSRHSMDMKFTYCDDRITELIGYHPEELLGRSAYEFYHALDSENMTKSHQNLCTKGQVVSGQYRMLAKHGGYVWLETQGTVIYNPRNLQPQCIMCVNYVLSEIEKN

Row | EC50 (786-O-Hif-Luc cells; [2]) [nM] | IC50 [1, 3] [nM] | SMILES | EC50 (786-O-Hif-Luc cells; read-out: Mean Luciferase EC50 (nM)) [nM] | IC50 [1, 4] [nM]
1 | 250 to 1000 | 50 to 249 | COc1cc(F)cc(Oc2ccc3c(c2Br)[C@@H](O)C(F)(F)S3(=O)=O)c1 [Compound 426] |  | 
2 | 50 to 249 | 50 to 249 | C[C@]1(C#N)C[C@H](Oc2ccc(S(=O)(=O)C(F)(F)F)c3c2C[C@H](F)[C@H]3O)C1 [Compound 795] |  | 
3 |  |  | O=S1(=O)c2ccc(Oc3cc(F)cc(Cl)c3)c(Br)c2[C@H](O)C1(F)F [Compound 405] | 50 to 249 | 50 to 249
4 | > 1000 |  | O=S(=O)(c1ccc(Oc2cc(F)cc(Cl)c2)c(Br)c1)C(F)F [Compound 131] |  | 250 to 1000
5 | 250 to 1000 | 50 to 249 | CCCc1ccc(S(=O)(=O)C(F)(F)F)c2c1CC(F)(F)C2O (stereo not shown) [Compound 517] |  | 
6 | > 1000 | > 1000 | O=S1(=O)c2ccc(Oc3cccc4cn[nH]c34)c(C(F)F)c2C(O)C1(F)F (stereo not shown) [Compound 441] |  | 
7 | 50 to 249 | < 50 | O=S1(=O)c2ccc(Oc3ccc(F)c(F)c3)c(C(F)F)c2[C@@H](O)C1(F)F [Compound 436] |  | 
8 | > 1000 | > 1000 | N#CC1(COc2ccc(S(=O)(=O)C(F)(F)F)c3c2CCC3O)CC1 (stereo not shown) [Compound 619] |  | 
9 | 250 to 1000 | 250 to 1000 | CC(C)(O)COc1ccc(S(=O)(=O)C(F)(F)F)c2c1CC(F)(F)[C@H]2O [Compound 750] |  | 
10 | > 1000 | 250 to 1000 | CC(=O)c1c(S(=O)(=O)C(F)(F)F)ccc(Oc2cc(F)cc(Cl)c2)c1Br [Compound 104] |  | 
11 | > 1000 | > 1000 | NC1CS(=O)(=O)c2ccc(Oc3cc(F)cc(Cl)c3)c(C(F)F)c21 (stereo not shown) [Compound 363] |  | 
12 | < 50 | < 50 | N#Cc1cccc(Oc2ccc3c(c2Br)[C@@H](O)C(F)(F)S3(=O)=O)c1 [Compound 430] |  | 
13 | > 1000 | 250 to 1000 | N#Cc1cc(F)cc(Oc2ccc(S(=O)(=O)C(F)F)cc2C#N)c1 [Compound 134] |  | 
14 | > 1000 | < 50 | Cc1cncc(Oc2ccc(S(C)(=O)=O)c3c2CC(F)(F)[C@H]3O)n1 [Compound 201] |  | 
15 | 50 to 249 | 50 to 249 | CS(=O)(=NC#N)c1ccc(Oc2cc(F)cc(C#N)c2)c2c1[C@H](O)[C@H](F)C2 (stereo partly shown) [Compound 302] |  | 
16 | > 1000 | 250 to 1000 | CC1(C)CCC(=O)[C@H](c2ccc(S(=O)(=O)C(F)(F)F)c3c2CC(F)(F)[C@H]3O)C1 [Compound 542] |  | 
17 | > 1000 | 250 to 1000 | CCS(=O)(=O)c1ccc(Oc2cc(F)cc(Cl)c2)c2c1C(O)CC2 (stereo not shown) [Compound 91] |  | 
18 | > 1000 | > 1000 | CS(=O)(=O)c1ccc(OC[C@@H]2C[C@@H]2C#N)c2c1[C@H](O)C(F)(F)[C@@H]2F [Compound 764] |  | 
19 | 50 to 249 | 50 to 249 | C#Cc1c(Oc2cc(F)cc(C#N)c2)ccc2c1C(O)C(F)(F)S2(=O)=O (stereo not shown) [Compound 409] |  | 
20 | > 1000 | > 1000 | COC(=O)COc1ccc(S(=O)(=O)C(F)(F)F)c2c1CC(F)(F)C2O (stereo not shown) [Compound 639] |  | 
21 | > 1000 | < 50 | O=S(=O)(c1ccc(OC2CCNCC2)c2c1C(O)C(F)(F)C2)C(F)(F)F (stereo not shown) [Compound 607] |  | 
22 | > 1000 | 50 to 249 | NC1c2cc(Oc3cc(F)cc(Cl)c3)ccc2S(=O)(=O)C1(F)F (stereo not shown) [Compound 358] |  | 

Row | EC50 (786-O-Hif-Luc cells; [2]) [nM] | IC50 [1, 3] [nM] | SMILES | EC50 (786-O-Hif-Luc cells; read-out: Mean Luciferase EC50 (nM)) [nM] | IC50 [1, 4] [nM]
23 | 50 to 249 | 250 to 1000 | NC(=O)Cc1ccc(S(=O)(=O)C(F)(F)F)c2c1CCC2O (stereo not shown) [Compound 523, 2-[1-hydroxy-7-(trifluoromethylsulfonyl)indan-4-yl]acetamide] |  | 
24 | < 50 | < 50 | O=S(=O)(CF)c1ccc(Oc2cc(F)cc(Cl)c2)c2c1[C@H](O)C(F)(F)C2 [Compound 65] |  | 
25 | > 1000 | > 1000 | CS(=O)(=O)c1ccc(OCC2CC2)c2c1[C@H](O)C(F)(F)C2 [Compound 779] |  | 
26 | > 1000 | > 1000 | CCCOc1ccc(I)c2c1C[C@@H](F)[C@H]2O [Compound 683] |  | 
27 | < 50 | < 50 | O=S(=O)(c1ccc(Oc2ccc(F)c(Cl)c2)c2c1[C@H](O)C(F)(F)C2)C(F)(F)F [Compound 221] |  | 
28 | > 1000 | > 1000 | N#Cc1cc(F)cc(Oc2ccc3c(c2C#N)C(N)C(F)(F)S3(=O)=O)c1 (stereo not shown) [Compound 464] |  | 
29 | 250 to 1000 | 50 to 249 | CS(=N)(=O)c1ccc(Oc2cc(F)cc(F)c2)c2c1C(O)C(F)(F)C2 (stereo not shown) [Compound 192] |  | 
30 | 250 to 1000 | < 50 | O=S(=O)(c1ccc(-c2cc(F)cc(Cl)c2)c2c1[C@H](O)C(F)(F)C2)C(F)(F)F [Compound 557] |  | 
31 | 250 to 1000 | 250 to 1000 | O=S1(=O)c2ccc(OCc3ccccc3)c(C(F)F)c2C(O)C1(F)F (stereo not shown) [Compound 411] |  | 
32 | 250 to 1000 | 250 to 1000 | CS(=O)(=O)c1ccc(Oc2cc(F)cc(C#N)c2)c2c1[C@H](O)C(F)(F)[C@H]2F [Compound 293] |  | 
33 | > 1000 | > 1000 | CS(=O)(=O)c1ccc(Oc2cc(F)cc(C#N)c2)c2c1[C@H](O)[C@H](F)[C@@H]2O [Compound 296] |  | 
34 | 250 to 1000 | < 50 | CS(=O)(=O)c1ccc(OC2CC(F)(F)C2)c2c1[C@H](O)[C@H](F)C2 [Compound 585] |  | 
35 | > 1000 | 50 to 249 | COC(=O)/C=C/c1c(S(=O)(=O)C(F)(F)F)ccc(Oc2cc(F)cc(C#N)c2)c1C [Compound 147] |  | 
36 | > 1000 | 50 to 249 | CS(=O)(=O)c1ccc(C(F)(F)CO)c2c1C(O)CC2 (stereo not shown) [Compound 554] |  | 
37 | > 1000 | > 1000 | NC(=O)C1CCc2c(OCC(F)F)ccc(C(F)(F)F)c21 (stereo not shown) [Compound 692] |  | 
38 | > 1000 | 250 to 1000 | O=S(=O)(c1ccc(OC2CCCC2)c2c1C(O)CC2)C(F)(F)F (stereo not shown) [Compound 603] |  | 
39 | 250 to 1000 | < 50 | O=S1(=O)c2ccc(Oc3cccc4sccc34)c(C(F)F)c2C(O)C1(F)F (stereo not shown) [Compound 440] |  | 
40 | 250 to 1000 | 50 to 249 | CC1(O)c2c(ccc(Oc3cc(F)cc(F)c3)c2Br)S(=O)(=O)C1(F)F (stereo not shown) [Compound 444] |  | 
41 | > 1000 | > 1000 | N#Cc1cc(F)cc(Oc2ccc(S(=O)(=O)C(F)(F)F)c3c2[C@@H](N)C[C@H]3O)c1 [Compound 279] |  | 
42 | > 1000 | > 1000 | N#Cc1cc(F)cc(Oc2ccc(S(=O)(=O)CCO)c3c2CC(F)(F)C3O)c1 (stereo not shown) [Compound 250] |  | 
43 | > 1000 | > 1000 | O=S(=O)(c1ccc(OCc2ccccn2)c2c1C(O)C(F)(F)C2)C(F)(F)F (stereo not shown) [Compound 665] |  | 
44 | 250 to 1000 | < 50 | CC1(C)C[C@@H](O)C[C@@H](c2ccc(S(=O)(=O)C(F)(F)F)c3c2CC(F)(F)[C@H]3O)C1 [Compound 550] |  | 

Row | EC50 (786-O-Hif-Luc cells; [2]) [nM] | IC50 [1, 3] [nM] | SMILES | EC50 (786-O-Hif-Luc cells; read-out: Mean Luciferase EC50 (nM)) [nM] | IC50 [1, 4] [nM]
45 | > 1000 | 250 to 1000 | N#Cc1cc(F)cc(Oc2ccc(S(=N)(=O)C(F)(F)F)c3c2CCC3O)c1 (stereo not shown) [Compound 258] |  | 
46 | 250 to 1000 | 50 to 249 | O=S(=O)(c1ccc(Oc2cc(F)cc(Cl)c2)c(Br)c1/C=N/O)C(F)(F)F [Compound 107] |  | 
47 | 250 to 1000 | > 1000 | N=S1(=O)c2ccc(Oc3cc(F)cc(F)c3)c(Br)c2C(O)C1(F)F (stereo not shown) [Compound 377] |  | 
48 | > 1000 | < 50 | CS(=O)(=O)c1ccc(O[C@H]2C[C@](F)(C#N)C2)c2c1[C@H](O)C(F)(F)[C@@H]2F [Compound 741] |  | 
49 | 250 to 1000 | 50 to 249 | N#Cc1c(Oc2cc(F)cc(F)c2)ccc2c1[C@@H](O)CS2(=O)=O [Compound 414] |  | 
50 | < 50 | < 50 | O=S(=O)(c1ccc(OCC2CCC2)c2c1[C@H](O)C(F)(F)C2)C(F)(F)F [Compound 716] |  | 
51 | 250 to 1000 | 50 to 249 | CS(=O)(=O)c1ccc(OC[C@@H]2CC2(F)F)c2c1[C@H](O)C(F)(F)[C@@H]2F [Compound 768] |  | 
52 | 250 to 1000 | 50 to 249 | O=S(=O)(c1ccc(-c2ccc(Cl)cc2)c2c1[C@H](O)C(F)(F)C2)C(F)(F)F [Compound 563] |  | 
53 | > 1000 | > 1000 | CC(C)(COc1ccc(S(=O)(=O)C(F)(F)F)c2c1CC(F)(F)[C@H]2O)S(C)(=O)=O [Compound 723] |  | 
54 | 250 to 1000 | 250 to 1000 | N#Cc1c(Oc2cccc(F)c2)ccc2c1[C@@H](O)CS2(=O)=O [Compound 422] |  | 
55 | 50 to 249 | < 50 | O[C@@H]1CCc2c(Oc3cc(F)cc(F)c3)ccc(C(F)(F)F)c21 [Compound 58] |  | 
56 | 250 to 1000 | 50 to 249 | Cc1c(Oc2cc(F)cc(C#N)c2)ccc(S(=O)(=O)C(F)(F)F)c1C=O [Compound 145] |  | 
57 | 250 to 1000 | 50 to 249 | CCC(COC)Oc1ccc(S(=O)(=O)C(F)(F)F)c2c1CC(F)(F)C2O (stereo not shown) [Compound 747] |  | 
58 | 50 to 249 | 50 to 249 | O[C@H]1c2c(C(F)(F)F)ccc(OCC(F)F)c2C[C@@H]1F [Compound 697] |  | 
59 | 50 to 249 | 250 to 1000 | O=S1(=O)c2ccc(Oc3cncc(F)c3)c(Br)c2[C@@H](O)C1(F)F [Compound 423] |  | 
60 | > 1000 | > 1000 | N#Cc1c(Oc2cc(F)cc(Cl)c2)ccc(S(=O)(=O)C(F)F)c1CO [Compound 35] |  | 
61 | 50 to 249 | 50 to 249 | OC1CCc2c(OCC(F)F)ccc(C(F)(F)F)c21 (stereo not shown) [Compound 696] |  | 
62 | > 1000 | > 1000 | Cc1cncc(Oc2ccc3c(c2Br)[C@@H](O)C(F)(F)S3(=O)=O)c1 [Compound 428] |  | 
63 | > 1000 | > 1000 | CC(C)(C#N)COc1ccc(S(C)(=O)=O)c2c1[C@@H](F)C(F)(F)[C@H]2O [Compound 752] |  | 
64 | 250 to 1000 | 250 to 1000 | O=S(=O)(c1ccc(Oc2cccc3[nH]ncc23)c2c1C(O)C(F)(F)C2)C(F)(F)F (stereo not shown) [Compound 243] |  | 
65 | > 1000 | < 50 | N#Cc1c(S(=O)(=O)C(F)(F)F)ccc(Oc2cc(F)cc(Cl)c2)c1Cl [Compound 111] |  | 
